Values quoted from earlier work, collected in US20250093362A1, “HIGH-THROUGHPUT ENGINEERING OF MOLECULAR GLUES” (Frontier Medicines Corporation, priority 2021, published 2025).

Biological target: CDK12-cyclin K and CUL4 adaptor protein DDB1 (Homo sapiens, UniProt Q16531+Q9NYV4)
Conditions: analog of CR8 lacking a single methylene group; Nat. 2020, 585 (7824), 293

Chain of CDK12-cyclin K and CUL4 adaptor protein DDB1 (Q9NYV4 713-1052 limits assumed): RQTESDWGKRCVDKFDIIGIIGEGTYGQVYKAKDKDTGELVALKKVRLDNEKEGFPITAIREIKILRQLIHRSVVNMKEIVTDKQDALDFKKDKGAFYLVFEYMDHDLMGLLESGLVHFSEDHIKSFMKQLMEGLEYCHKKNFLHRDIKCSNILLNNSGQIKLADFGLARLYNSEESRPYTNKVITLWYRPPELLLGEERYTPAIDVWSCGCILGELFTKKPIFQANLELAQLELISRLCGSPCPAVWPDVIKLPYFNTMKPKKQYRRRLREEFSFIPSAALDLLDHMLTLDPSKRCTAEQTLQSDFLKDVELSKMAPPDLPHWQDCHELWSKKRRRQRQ
Chain of CDK12-cyclin K and CUL4 adaptor protein DDB1 (O75909 1-267 partner limits assumed): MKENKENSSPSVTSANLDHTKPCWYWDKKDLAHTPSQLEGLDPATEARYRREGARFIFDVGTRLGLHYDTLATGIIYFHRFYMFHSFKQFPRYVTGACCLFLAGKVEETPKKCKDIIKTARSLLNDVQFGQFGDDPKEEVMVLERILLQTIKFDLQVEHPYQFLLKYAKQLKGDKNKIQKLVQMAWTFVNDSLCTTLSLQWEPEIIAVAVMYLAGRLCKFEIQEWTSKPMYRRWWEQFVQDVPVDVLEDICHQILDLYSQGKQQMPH
Chain of CDK12-cyclin K and CUL4 adaptor protein DDB1 (Q16531 whole entry): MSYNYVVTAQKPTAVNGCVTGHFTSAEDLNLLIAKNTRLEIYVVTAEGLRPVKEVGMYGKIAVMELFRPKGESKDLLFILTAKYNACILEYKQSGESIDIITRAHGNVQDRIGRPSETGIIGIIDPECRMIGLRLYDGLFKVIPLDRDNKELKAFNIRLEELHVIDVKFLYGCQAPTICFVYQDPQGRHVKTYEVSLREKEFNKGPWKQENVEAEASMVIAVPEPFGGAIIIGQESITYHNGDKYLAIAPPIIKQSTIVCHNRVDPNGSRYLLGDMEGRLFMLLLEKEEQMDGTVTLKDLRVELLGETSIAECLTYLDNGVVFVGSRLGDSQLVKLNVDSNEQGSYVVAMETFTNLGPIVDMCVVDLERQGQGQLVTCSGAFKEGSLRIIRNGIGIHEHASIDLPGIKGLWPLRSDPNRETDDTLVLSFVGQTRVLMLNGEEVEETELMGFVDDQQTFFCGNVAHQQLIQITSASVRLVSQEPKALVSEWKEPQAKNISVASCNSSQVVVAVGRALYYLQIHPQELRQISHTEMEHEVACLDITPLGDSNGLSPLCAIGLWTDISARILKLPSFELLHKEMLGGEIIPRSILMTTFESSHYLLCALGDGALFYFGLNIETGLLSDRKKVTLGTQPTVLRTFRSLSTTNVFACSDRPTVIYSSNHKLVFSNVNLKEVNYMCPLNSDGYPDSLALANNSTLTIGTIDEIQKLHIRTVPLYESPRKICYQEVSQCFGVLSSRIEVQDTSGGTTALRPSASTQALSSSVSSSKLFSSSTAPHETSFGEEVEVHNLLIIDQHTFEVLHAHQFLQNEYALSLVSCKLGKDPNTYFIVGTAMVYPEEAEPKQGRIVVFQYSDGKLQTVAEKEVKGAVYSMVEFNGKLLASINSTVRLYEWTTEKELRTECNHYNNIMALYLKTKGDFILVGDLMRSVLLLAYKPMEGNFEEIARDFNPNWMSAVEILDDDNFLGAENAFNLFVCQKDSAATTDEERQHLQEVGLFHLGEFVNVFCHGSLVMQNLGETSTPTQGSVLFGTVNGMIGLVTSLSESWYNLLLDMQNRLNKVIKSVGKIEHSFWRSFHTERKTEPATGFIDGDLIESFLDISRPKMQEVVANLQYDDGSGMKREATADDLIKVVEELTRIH

CC[C@H](CO)Nc1nc(Nc2ccc(-c3ccccn3)cc2)c2ncn(C(C)C)c2n1 [DRF053]
driving formation of the ternary complex of CDK12-cyclin K and DDB1: ineffectual
